Data published in patent US20090123940A1, “MOLECULES INVOLVED IN SYNAPTOGENESIS AND USES THEREFOR” (THE JOHNS HOPKINS UNIVERSITY, priority 2007, published 2009).

Key:
[1] = test system: Schaffer collateral-CA1 synapse; test: mGluR1/5-dependent LTD in hippocampal slices (field EPSP recording); assay type: cell-based, mouse; settings: for fEPSP slope after DHPG-induced LTD: control mouse slices, t=75 min, DHPG 50 μM for 5 min, TAPI-2 50 μM for 20 min starting 15 min before DHPG
Method: mGluR1/5-dependent LTD in hippocampus. Hippocampal slices from postnatal day 21 to 28 mice were prepared as previously described (Huber et al., Science 288:1254-[…]). […] Transverse slices (400 μm thick) were cut on a Vibratome 3000 (The Vibratome company). Slices were transferred to a reservoir chamber filled with a normal aCSF which comprised (in mM): 124 mM NaCl, 2.5 mM KCl, 1.3 mM MgCl2, 2.5 mM CaCl2, 1 mM NaH2PO4, 26.2 mM NaHCO3, and 20 D-glucose. Slices were allowed to recover for 2-6 hr at room temperature (22-24° C.). For recording, slices were transferred to an interface type chamber, maintained at 32° C. for 1 hr, and perfused continuously with aCSF at a rate of 2.5 mL/min. Standard methods were used to record field EPSPs (fEPSPs) from the stratum radiatum in response to stimulation of the Schaffer collateral-commissural pathway with a concentric bipolar tungsten electrode (FHC, Bowdoin, Me.). The stimulus intensity was adjusted to elicit 50-60% of the maximal response. Evoked responses were stored on-line and analyzed off-line using Clampfit (Ver. 9.2). […] The strength of the synaptic response was measured as the fEPFP slope. […] LTD was expressed as percentage of the fEPSP slope during the baseline recording. All data shown for the time course are mean±SEM.

[2] = test system: Purkinje cells cultured from embryonic mouse cerebellum; test: LTD of glutamate-evoked inward current in cultured Purkinje cells (glutamate test pulses paired with depolarizing steps); assay type: cell-based; settings: t=40 min; TAPI-2 10 μM, GM6001 1 μM, GM6001 control compound 1 μM; n=7
Method: (§1) Recording and Ca^2+ imaging in cerebellar cultures. Cultures of embryonic mouse cerebellum were prepared as previously described and recordings were performed according to our previously published method (Leitges et al., Neuron 44:585-94, 2004). […]. Test pulses were delivered using negative current pulses (300-700 nA, 30-80 msec duration). LTD-inducing pairing stimuli consisted of six, 3-s-long depolarizations to 0 mV, each delivered together with a test pulse of glutamate.
(§2) Membrane currents were recorded with an Axopatch 200A amplifier, and digitized at 10 kHz for exogenous glutamate responses and 20 kHz for mEPSCs. Signals were lowpass filtered at 5 kHz (1 kHz for mEPSCs) and acquired using Axograph X software (Axograph Scientific, Sydney, Australia). Recordings in which Rinput or Rseries varied by more than 10% were excluded from the analysis. For analysis of mEPSCs, Axograph X mini analysis software was used. This detected events based on closeness of fit of the mEPSC to a sliding template. Events smaller than − ? 4 pA were discarded. A separate template was created for each recording by averaging 30 of its most unambiguous mEPSCs as selected by eye.
Other studies have shown that LTD in Purkinje cells cultured from embryonic mouse cerebellum requires activation of mGluR1, and is expressed postsynaptically as a reduction in surface AMPA receptors (Chung et al., Science 300:1751-5, 2003; Leitges et al., Neuron 44:585-94, 2004; Linden, PNAS 98:14066-71, 2001; Matsuda et al., EMBO J. 19:2765-74, 2000; Steinberg et al., Neuron 49:845-60, 2006; Wang and Linden, Neuron 25:635-47, 2000). Here, LTD was examined using a purely postsynaptic model in which iontophoretic test pulses of glutamate are applied to voltage-clamped Purkinje cells in culture. Following a baseline recording period, LTD was induced by pairing six 3 sec long depolarizing steps to 0 mV with six glutamate test pulses. When test pulses were resumed after pairing, LTD of the glutamate-evoked inward current was evident (52±9.0% of baseline at t=40 min, n=7 cells, FIG. 6A). […]

[3] = test system: NPR cleavage at Site A (TACE); test: NPR cleavage assay in transfected HEK293T cells; assay type: cell-based, rat; settings: TAPI-2 50 μM; GM6001 25 μM
Method: Cleavage Assay HEK293T cells were plated in OptiMEM (Invitrogen, Carlsbad, Calif.) containing 5% FBS onto 6-well dishes at a density of 4×10^5 cells/mL (2 mL/well) 1 day before transfection. Cells were transfected with NPR in pRK5 using LipofectAMINE 2000 (Invitrogen, Carlsbad Calif.). After 24 hr the medium was replaced with serum-free OptiMEM. […] Samples from each well were obtained at specific time points, immediately placed on ice, centrifuged at 15,000 g to remove cell debris, and then treated with 2% β-mercaptoethanol containing loading buffer. At the end of the time course, the cells were lysed with RIPA buffer, centrifuged to remove cell debris, and treated with 2% β-mercaptoethanol in loading buffer. Samples (20 μL of medium or lysate diluted to 1/5) were run on SDS-PAGE gels and analyzed by Western blotting.

[4] = test system: cultured cerebellar Purkinje cells; test: Basal electrophysiological properties and Ca2+ imaging in cultured cerebellar Purkinje cells; assay type: cell-based, mouse; settings: TAPI-2 10 μM; GM6001 1 μM; GM6001 control 1 μM; mean ± SEM
Method: as §1, §2
Bis-Fura-2 ratio imaging of intracellular free Ca^2+ in the dendritic shafts of cultured Purkinje cells was accomplished by measuring the background corrected fluorescence ratio at 340 and 380 nm excitation using a cooled CCD camera system. In these experiments, EGTA was removed from the internal saline and replaced with 100 μM bis-Fura-2.

| Structure (SMILES) | fEPSP slope after DHPG-induced LTD [1] | DHPG-induced LTD (fEPSP slope) ([1]; slices from NP TKO mice, n=9) | DHPG-induced LTD (fEPSP slope) ([1]; slices from NPR KO mice, n=7) | DHPG-induced LTD (fEPSP slope) ([1]; slices from wild-type mice, n=13) | glutamate-evoked inward current after LTD induction [2] | PMA-stimulated cleavage at Site A / secretion of LFC-NPR into the medium [3] | initial, phasic EPSP depression during DHPG treatment ([1]; TAPI-2 50 μM) | basal fEPSP slope or probability of release as indexed by paired pulse ratio (PPR) ([1]; TAPI-2 50 μM for 20 min) | PP-1 Hz induced LTD (fEPSP slope) ([1]; control slices pretreated with TAPI-2 50 μM, t=50 min, n=4) | DHPG-evoked (dendritic Ca2+ transient) [4] | Depol-evoked (dendritic Ca2+ transient) [4] | Resting Ca2+ [4] | mEPSC 10-90% rise [4] | mEPSC 50% decay [4] | mEPSC amp [4] |
| --- | --- | --- | --- | --- | --- | --- | --- | --- | --- | --- | --- | --- | --- | --- | --- |
| N[C@H](C(=O)O)c1cc(O)cc(O)c1 [DHPG, (S)-3,5-dihydroxyphenylglycine] | 74.0±3.3 % of baseline | 85.9±4.1% | 96.3±2.5% | 68.6±3.7% | – | – | – | – | – | – | – | – | – | – | – |
| CC(C)C[C@H](CC(=O)NO)C(=O)N[C@H](C(=O)N[C@@H](C)C(=O)NCCN)C(C)(C)C [TAPI-2] | 93.8±2.5 % of baseline | – | – | – | 112±8.6 % of baseline | inhibited | no effect | did not alter | 101.8±5.6 % of baseline | 231 ± 35 nM | 604 ± 89 nM | 109 ± 22 nM | 1.8 ± 0.4 msec | 7.7 ± 0.6 ms | 27 ± 7 pA |
